Source: PubChem BioAssay (NCI)
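Test compounds were applied to cells in 96-well plates for 48 hours at 5 doses. Here, GI50 denotes the concentration required for 50% inhibition of growth. TGI marks complete inhibition of growth.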

Legend:
Test in all cases: DTP human tumour cell line panel, 48 h; in the data active = GI50 below about 0.43 µM; inactive = the rest
UO-31 renal = system: UO-31 renal
LOX IMVI melanoma = system: LOX IMVI melanoma
MALME-3M melanoma = system: MALME-3M melanoma
SF-539 CNS = system: SF-539 CNS
NCI-H226 lung = system: NCI-H226 lung
K-562 leukemia = system: K-562 leukemia
KM12 colon = system: KM12 colon
SF-295 CNS = system: SF-295 CNS
UACC-62 melanoma = system: UACC-62 melanoma
BT-549 breast = system: BT-549 breast

CCCCN(CCCC)C(=O)C(=O)C(C(=O)C(=O)OC)c1nc2ccccc2o1 (centres undefined)
> 100 µM: TGI (UO-31 renal) | TGI (LOX IMVI melanoma) | TGI (MALME-3M melanoma) | TGI (SF-539 CNS) | TGI (NCI-H226 lung) | TGI (K-562 leukemia) | TGI (KM12 colon) | TGI (SF-295 CNS)

CN1C(=O)CNS1(=O)=O
> 100 µM: TGI (UO-31 renal) | TGI (LOX IMVI melanoma) | TGI (MALME-3M melanoma) | TGI (SF-539 CNS) | TGI (UACC-62 melanoma) | TGI (NCI-H226 lung) | TGI (K-562 leukemia) | TGI (KM12 colon) | TGI (SF-295 CNS)

N#CCC(=O)N/N=C(/C(=O)Nc1ccccc1)C1C(=O)N(c2ccccc2)N=C1N (centres undefined)
> 100 µM: TGI (UO-31 renal) | TGI (LOX IMVI melanoma) | TGI (MALME-3M melanoma) | TGI (SF-539 CNS) | TGI (UACC-62 melanoma) | TGI (NCI-H226 lung) | TGI (K-562 leukemia) | TGI (KM12 colon) | TGI (SF-295 CNS)

Cn1cnc([N+](=O)[O-])c1Sc1nccn1-c1ccccc1
46.9 µM: TGI (LOX IMVI melanoma)
> 100 µM: TGI (UO-31 renal) | TGI (SF-539 CNS) | TGI (UACC-62 melanoma) | TGI (NCI-H226 lung) | TGI (K-562 leukemia) | TGI (KM12 colon) | TGI (SF-295 CNS)
62.8 µM: TGI (MALME-3M melanoma)

S=c1sc2sc(=S)sc2s1
72 µM: TGI (SF-295 CNS)
81.8 µM: TGI (UO-31 renal)
> 100 µM: TGI (LOX IMVI melanoma) | TGI (MALME-3M melanoma) | TGI (UACC-62 melanoma) | TGI (K-562 leukemia) | TGI (KM12 colon)
57.8 µM: TGI (SF-539 CNS)

CCOC(=O)c1sc(Nc2cc(Cl)ccc2Cl)nc1C
> 100 µM: TGI (UO-31 renal) | TGI (LOX IMVI melanoma) | TGI (MALME-3M melanoma) | TGI (SF-539 CNS) | TGI (NCI-H226 lung) | TGI (K-562 leukemia) | TGI (KM12 colon) | TGI (SF-295 CNS)

Cc1cn2c(/C=N/NC3=NCCN3)c(-c3ccc(Cl)c([N+](=O)[O-])c3)nc2s1
1.6 µM: TGI (LOX IMVI melanoma)
inactive: GI50 (UO-31 renal) 0.715 µM | GI50 (LOX IMVI melanoma) 0.871 µM | GI50 (SF-539 CNS) 0.962 µM | GI50 (UACC-62 melanoma) 0.933 µM | GI50 (K-562 leukemia) 1.08 µM | GI50 (KM12 colon) 0.872 µM | GI50 (BT-549 breast) 0.892 µM
1.98 µM: TGI (UACC-62 melanoma)
1.85 µM: TGI (SF-539 CNS)
1.77 µM: TGI (BT-549 breast)
2.34 µM: TGI (K-562 leukemia)
1.44 µM: TGI (UO-31 renal)
1.9 µM: TGI (KM12 colon)

Nc1nc(N)c2cc(Sc3ccc(Cl)cc3)ccc2n1
16.1 µM: TGI (UO-31 renal)
23.4 µM: TGI (NCI-H226 lung)
15.2 µM: TGI (SF-295 CNS)
3.27 µM: TGI (MALME-3M melanoma)
inactive: GI50 (UO-31 renal) 2.43 µM | GI50 (MALME-3M melanoma) 1.25 µM | GI50 (SF-539 CNS) 3.1 µM | GI50 (UACC-62 melanoma) 0.795 µM | GI50 (NCI-H226 lung) 9.71 µM | GI50 (KM12 colon) 1.34 µM | GI50 (SF-295 CNS) 0.63 µM
active: GI50 (LOX IMVI melanoma) 0.35 µM | GI50 (K-562 leukemia) 0.286 µM
14.5 µM: TGI (UACC-62 melanoma)
1.86 µM: TGI (K-562 leukemia)
4.32 µM: TGI (KM12 colon)
4.07 µM: TGI (LOX IMVI melanoma)
22.3 µM: TGI (SF-539 CNS)

Cc1cc2c(=O)cc(-c3ccc(Cl)c(Cl)c3)oc2c(C(=O)O)c1C
> 100 µM: TGI (UO-31 renal) | TGI (LOX IMVI melanoma) | TGI (MALME-3M melanoma) | TGI (SF-539 CNS) | TGI (UACC-62 melanoma) | TGI (NCI-H226 lung) | TGI (K-562 leukemia) | TGI (KM12 colon) | TGI (SF-295 CNS)

Cc1ccc(C)c(N2C(=O)C(=O)C(c3nc4ccccc4s3)C(=O)C2=O)c1
> 100 µM: TGI (UO-31 renal) | TGI (LOX IMVI melanoma) | TGI (MALME-3M melanoma) | TGI (SF-539 CNS) | TGI (UACC-62 melanoma) | TGI (NCI-H226 lung) | TGI (K-562 leukemia) | TGI (KM12 colon) | TGI (SF-295 CNS)

Cc1cc2c(cc1C)[n+](=O)c(C(=O)CC(=O)C(=O)Nc1ccccc1C)c(C)n2[O-]
> 100 µM: TGI (UO-31 renal) | TGI (LOX IMVI melanoma) | TGI (MALME-3M melanoma) | TGI (SF-539 CNS) | TGI (UACC-62 melanoma) | TGI (NCI-H226 lung) | TGI (K-562 leukemia) | TGI (KM12 colon) | TGI (SF-295 CNS)

COC(=O)c1oc([N+](=O)[O-])c(-c2ccccc2)c1-c1ccccc1
> 100 µM: TGI (UO-31 renal) | TGI (LOX IMVI melanoma) | TGI (MALME-3M melanoma) | TGI (SF-539 CNS) | TGI (UACC-62 melanoma) | TGI (NCI-H226 lung) | TGI (K-562 leukemia) | TGI (KM12 colon) | TGI (SF-295 CNS)

O=[N+]([O-])c1cccc(C=NC23CC4CC(CC(C4)C2)C3)c1
> 100 µM: TGI (UO-31 renal) | TGI (LOX IMVI melanoma) | TGI (MALME-3M melanoma) | TGI (SF-539 CNS) | TGI (UACC-62 melanoma) | TGI (NCI-H226 lung) | TGI (K-562 leukemia) | TGI (KM12 colon) | TGI (SF-295 CNS)

CCOc1ccc(N=C2NC(=O)C(CC(=O)Nc3ccc(Cl)cc3Cl)S2)cc1 (centres undefined)
> 100 µM: TGI (UO-31 renal) | TGI (LOX IMVI melanoma) | TGI (MALME-3M melanoma) | TGI (SF-539 CNS) | TGI (UACC-62 melanoma) | TGI (K-562 leukemia) | TGI (KM12 colon) | TGI (SF-295 CNS)

COC1OC(CO)C(O)C(NC(=O)N(C)N=O)C1O (centres undefined)
> 100 µM: TGI (UO-31 renal) | TGI (MALME-3M melanoma) | TGI (SF-539 CNS) | TGI (NCI-H226 lung) | TGI (K-562 leukemia) | TGI (KM12 colon) | TGI (SF-295 CNS)

Cc1ccccc1C(C#N)/C(=N/NC(N)=S)C(=O)Nc1c(C)cccc1C (centres undefined)
> 100 µM: TGI (UO-31 renal) | TGI (LOX IMVI melanoma) | TGI (MALME-3M melanoma) | TGI (UACC-62 melanoma) | TGI (NCI-H226 lung) | TGI (KM12 colon) | TGI (SF-295 CNS)

Cc1cc2c(=O)cc(-c3ccc(O)cc3)oc2c(C(=O)O)c1C
> 100 µM: TGI (UO-31 renal) | TGI (LOX IMVI melanoma) | TGI (MALME-3M melanoma) | TGI (SF-539 CNS) | TGI (UACC-62 melanoma) | TGI (NCI-H226 lung) | TGI (K-562 leukemia) | TGI (KM12 colon) | TGI (SF-295 CNS)
